From patent US9943687B2, “Method of treating parkinson's disease and other movement disorders” (Duke University, priority 2007, dated 2018)
Values joined by “and” are separate entries in the source; they are usually repeats but may differ in a detail not shown here. Identical values can stand only once.

Assays:
[1] = tested on: tyrosine hydroxylase; assay: Tyrosine hydroxylase staining and quantification in striatum of 6-OHDA lesioned rats; assay type: in vivo, Long-Evans rats; conditions: 6-OHDA three sites each side, 7 μg per site
Procedure: Rats received a total of […] 6-OHDA, injected in 3 locations of the striatum on each side. The injections contained a saline solution with 3.5 mg/ml 6-OHDA and 0.05% ascorbate. Anteroposterior, mediolateral and dorsoventral coordinates for the injections were: +1.0, +/−3.0, −5.0; −0.1, +/−3.7, −5.0 and −1.2, +/−4.5 and −5.0 (Winkler et al, Neurobiol. Dis. 10:165 (2002)).
The extent and position of striatal lesions was confirmed by TH immunohistochemistry. For quantification of TH-staining, digital photos of the individual sections were taken with a 16× microscope (Stemi 2000-c, Zeiss) under identical illumination conditions. The range in brightness was practically identical for every photo ranging from no light (inside the microscope) at the outer edge to the brightest non-stained part of each section. Images were converted to grey-scale bitmap format with an 8-bit dynamic range in brightness.

[2] = tested on: striatal levels of dopamine; assay: Tissue content analysis of striatal dopamine and metabolites (HPLC-EC) after AMPT; assay type: in vivo, wild-type C57/BL6J mice
Procedure: FIGS. 11A-11C. Tissue content analysis confirms that acute pharmacological dopamine depletion in wild-type mice leads to striatal dopamine levels similar to those observed in PD patients. […] Average quantities in depleted animals were reduced for dopamine, DOPAC and HVA to: 4.5 ng, 0.17 ng and 0.41 ng per mg tissue, respectively, compared to 14.4 ng, 0.74 ng and 1.36 ng per mg tissue, for saline injected control animals (**=p<0.005, Mann-Whitney test, n=6 in each group). Tissue content analysis of dopamine and metabolites.
Striatal tissue content of dopamine was assessed using high performance liquid chromatography with electrochemical detection, as previously described. Striata were rapidly dissected, frozen, and stored at −80° C. Later, tissue samples were homogenized in 0.1M HClO4 containing 100 ng/ml 3,4-dihydroxybenzylamine (DHBA) as an internal standard. Homogenates were centrifuged for 10 min at 10,000×g. Supernatants were filtered through 0.22 μm filter and analyzed for levels of dopamine using HPLC-EC. Monoamines and metabolites were separated on a microbore reverse-phase column (C-18, 5 μm, 1×150 mm, Unijet, BAS). The volume of injection was 5 μl.
(§1) The first set of experiments was carried out using an inducible mouse model of PD, first in wild-type animals and then in dopamine-transporter knock-out (DAT-KO) mice (Sotnikova et al, PLoS Biol. 3:e271 (2005)). Through pharmacological inhibition of dopamine synthesis, acute dopamine depletion was induced in both types of animals in order to reliably document the effects of DCS during a severe parkinsonian-like state of akinesia. In agreement with previous experiments, the characteristic behavioral and electrophysiological changes following inhibition of dopamine synthesis was confirmed in these animals (Carlsson, Acta Neurol. Scand. Suppl 51:11 (1972), Costa et al, Neuron. 52:359 (2006), Sotnikova et al, PLoS Biol. 3:e271 (2005)). In patients, the cardinal symptoms of idiopathic PD, rigidity, resting tremor and brady-/hypokinesia, have been reported to be clinically apparent following degeneration of 60-70% of the dopaminergic neurons of the substantia nigra pars compacta, which in turn results in a […] reduction of striatal dopamine levels (Brooks et al, Biol. Psychiatry 59:908 (2006), Lloyd et al, J. Pharmacol. Exp. Ther. 195:453 (1975)). […] Secondly, a pronounced muscle tremor was evident during resting periods, which was reflected in characteristic oscillatory patterns in electromyographic (EMG) recordings obtained from chronically implanted microwires in the nuchal muscles (FIG. 12). This tremor was suppressed during locomotion bouts. […] (FIG. 13A, see also Drouot et al, Neuron 44:769 (2004) and Sakai et al, Brain Res. 633:144 (1994)).

[3] = tested on: wild-type mice; assay: Open-field locomotion after acute pharmacological dopamine depletion; assay type: in vivo, wild-type C57/BL6J mice
Procedure: (§2) Rats were placed in a circular open-field (90 cm diameter) for 70 min (10 min adaptation and 1 h behavioural recording). The animals were then allowed to rest in its home cage for one hour. After that, the animals were reintroduced into the open-field and dorsal column stimulation (DCS) was applied every 10 minutes for 30 seconds. In mice, locomotion was documented both by video recordings and through an automated tracking system based in infra-red beams (Med Associates Inc., VT). Recordings were obtained before and after dopamine-depletion, and DCS was applied as described below.
(§3) The movements of the rats in the open-field were extracted from the digitized video recordings, with approximately 1 mm spatial resolution, with custom designed algorithms implemented in command interpreting software (The MathWorks Inc., MA). For mice, scored locomotion from the infra-red tracking system was binned into 500 ms bins (original resolution 50 ms). For locomotion extraction from video data, single frames with a 500 ms interval were used.
The number of bins used for histograms of locomotion speeds was adjusted according to the maximum speed scored in a single bin in the slowest condition (i.e. 500 mm/s for the rats and 180 mm/s for the mice). The relatively few (<0.3%) events with locomotion components faster than the upper limit found in the other conditions were assigned to the fastest bin. The number of events within each speed interval was summed and the relative change in response to DCS was calculated. A lower threshold just above the quantal step was used in the analysis of histogram distributions, i.e. 10 mm/500 ms for both mouse and rat data.
as §1

[4] = tested on: wild-type mice; assay: Catalepsy test (forepaws on bar 3 cm above the ground); assay type: in vivo, wild-type C57/BL6J mice; conditions: after the 6 h depletion period
Procedure: The first set of experiments was carried out using an inducible mouse model of PD, first in wild-type animals and then in dopamine-transporter knock-out (DAT-KO) mice (Sotnikova et al, PLoS Biol. 3:e271 (2005)). Through pharmacological inhibition of dopamine synthesis, acute dopamine depletion was induced in both types of animals in order to reliably document the effects of DCS during a severe parkinsonian-like state of akinesia. In agreement with previous experiments, the characteristic behavioral and electrophysiological changes following inhibition of dopamine synthesis was confirmed in these animals (Carlsson, Acta Neurol. Scand. Suppl 51:11 (1972), Costa et al, Neuron. 52:359 (2006), Sotnikova et al, PLoS Biol. 3:e271 (2005)). In patients, the cardinal symptoms of idiopathic PD, rigidity, resting tremor and brady-/hypokinesia, have been reported to be clinically apparent following degeneration of 60-70% of the dopaminergic neurons of the substantia nigra pars compacta, which in turn results in a […] reduction of striatal dopamine levels (Brooks et al, Biol. Psychiatry 59:908 (2006), Lloyd et al, J. Pharmacol. Exp. Ther. 195:453 (1975)). […]

[5] = tested on: corticostriatal circuit; assay: Corticostriatal LFP oscillations / dopamine spectral index after AMPT injection; assay type: in vivo, C57/J (wild type) male mice; conditions: after AMPT injection 250 mg/kg i.p.
Procedure: Two C57/J (wild type) male mice where implanted with peripheral nerve cuff electrodes, microwire electrodes arrays in the striatum and motor cortex and one EMG wire in the trapezium muscle. After a week of recovery, a series of experiments were carried out. Individual animals were introduced to the open field activity (OFA) monitor cage, which permitted tracking of the animal's locomotive activity. After 10 minutes, the animal was injected with AMPT (250 mg/kg, i.p.) to produce a partial depletion in dopamine brain levels. The stimulation started 15 minutes after the injection. It was delivered in 2-minute windows, alternated with 2 minutes of rest (no stimulation). The amplitude was fixed at 0.4 mA. This value was selected on the basis that it produced a noticeable effect on the animal (soft scratching of the whiskers pads) at the onset of stimulation but no further signs of discomfort or pain. Sixteen different frequency values delivered in a pseudorandom way (1-130 Hz) were tested.
The key observation in these experiments was that IS at some frequencies could revert this strong neural oscillation pattern to the type of desynchronized firing activity observed during the control period. […] In order to quantify this observation, the ratio between the LFP power in the 2-4 Hz and 0-4 Hz range was used as an indicator of the predominant oscillatory pattern (FIG. 6). […]

[6] = tested on: striatal dopamine concentrations; conditions: cited from earlier work
[7] = tested on: DAT-KO mice; assay: Minimum L-DOPA dose (alone or with DCS) required to restore locomotion; assay type: in vivo; conditions: AMPT-treated DAT-KO mice
Procedure: as §2, §3
In order to find the minimum dose of L-DOPA (alone or combined with DCS) required to restore locomotion, a severely dopamine-depleted akinetic animal model was used, namely mice lacking the gene for the presynaptic dopamine membrane transporter (DAT-KO). […]

[8] = tested on: DAT-KO mice; assay: LFP spectral index in severely dopamine depleted animals; assay type: in vivo; conditions: last hours of testing period, coinciding with onset of locomotion
Procedure: FIG. 20. Local field potentials are shifted to higher frequencies as a result of DCS even in severely dopamine depleted animals. Average spectral indices (power ratio: [25-55]/[1.5-25] Hz) calculated for DCS+L-DOPA (black) and L-DOPA (grey) treated animals, respectively. DCS induced spectral changes even at the lowest L-DOPA dose tested (a single 1 mg/kg injection) while the spectral change in the L-DOPA only group occurred during the last hours of the testing period (after more than 20 mg/kg L-DOPA in total) coinciding with onset of locomotion.
Struck by the dramatic functional recovery on the behavioral level, the electrophysiological changes associated with motor improvements were analyzed next. […] The spectral shift was maintained throughout the stimulation period and lasted for ˜50 s following the off-set of stimulation. This indicates a prolonged shift in the activity state of these brain structures, also ruling out any major effects of contamination in the spectrograms from stimulation currents (FIG. 16C). To condense the spectral shift into a single measure, a spectral index was computed by dividing the spectral range analyzed into an upper and lower half and calculating the ratio of the summed power of the frequencies in the two intervals [(25-55 Hz)/(1.5-25 Hz)]. […]

[9] = two i.p. injections of 250 mg/kg, 2 hours apart, measured 4 hours after last injection, n=6

## NCCc1cc(O)c(O)cc1O [6-OHDA]
[1]
  tyrosine hydroxylase staining relative to sham treated controls: ~20% and 21%

## CC(N)(Cc1ccc(O)cc1)C(=O)O (stereo not drawn) [AMPT, α-methyl-p-tyrosine]
[2]; two i.p. injections (250 mg/kg) during a 6 h period
  reduction of striatal dopamine levels: 69%
[2]; [9]
  striatal DOPAC tissue content in depleted animals: 0.17 ng per mg tissue
  striatal HVA tissue content in depleted animals: 0.41 ng per mg tissue
[2]; two i.p. injections of 250 mg/kg, 2 hours apart, measured 4 hours after last injection, n=6, 250 mg/kg
  striatal dopamine tissue content in depleted animals: 4.5±2.0 ng per mg tissue and 4.5 ng per mg tissue
[3]; depleted animals during testing periods
  average amount of locomotion as percentage of control values: ~10%
[3]; depleted animals, n=14
  average locomotion score in open-field (mean±SEM): 0.4±0.02 mm/s
[3]; fast speed interval
  locomotion score, fast movements, as percentage of non-depleted animals: 0.3%
[3]; medium speed interval
  locomotion score, medium movements, as percentage of non-depleted animals: 2.0%
[3]; slow speed interval
  locomotion score, slow movements, as percentage of non-depleted animals: 10.5%
[4]
  catalepsy: time unable to remove the forepaws from bar: at least 30 s
[5]
  frequency of strong LFP synchronization after dopamine depletion: 4 Hz
[5]; basal value around 0.5
  dopamine spectral index (LFP power 2-4 Hz / 0-4 Hz): ~1
[6]; 250 mg/kg i.p.
  dopamine levels after AMPT in DAT-KO mice: virtually undetectable levels
[6]; DAT-KO mice treated with AMPT
  duration of severe akinesia, rigidity and tremors: up to 16 hours
  striatal dopamine concentration relative to control animals: 0.2%

## N[C@@H](Cc1ccc(O)c(O)c1)C(=O)O [L-DOPA]
[7]; L-DOPA injections every hour with increasing dose
  L-DOPA injection dose at which locomotion first occurred: 5 mg/kg
[7]; cumulative dose of hourly injections
  total L-DOPA dose when locomotion first occurred: 15 mg
[8]
  total L-DOPA dose at which spectral change occurred: more than 20 mg/kg
